Measurements from patent US20040248275A1, “Engineered bacterial aggregates” (priority 2003, published 2004).

Legend:
Experiment in all cases: Lectin aggregation of bacterial cells (microtitre wells, semi-quantitative score)
Assay type in all cases: cell-based
Set-up in all cases: key: Where the addition of lectins did not cause the aggregation of cells, a score of “0” was assigned; Lectins that caused cellular-aggregation to give small flocs in a turbid suspension were given a score of “+”; A score of “++” was given to lectin-cell aggregate mixes that resulted in large aggregates seen by eye in a turbid suspension; Lectins that caused cellular aggregation to give easily visible aggregates in a clear solution were given a score of “+++”
Conditions in all cases: cells O.D. 0.5 at 650 nm
A. hydrophila = tested on: A. hydrophila
Experimental: (§1) Assay approach: Six lectins were chosen to discover their suitability for the aggregation of different species of bacteria. These were Concanavalin A, Lentil lectin, Pseudomonas aeruginosa lectin, peanut lectin, Limulus polyphemus lectin and wheat germ lectin.
(§2) The ability of the lectins to aggregate bacterial cells was studied by mixing cells at an O.D. of 0.5 at 650 nm with different lectins at different concentrations. The extent of aggregation was determined by a semi-quantitative approach. […] Lectins that caused cellular-aggregation to give small flocs in a turbid suspension were given a score of “+”. […] Lectins that caused cellular aggregation to give easily visible aggregates in a clear solution were given a score of “+++”.

C. freundii = tested on: C. freundii
Experimental: as §1, §2

E. brevis = tested on: E. brevis
Experimental: as §1, §2

E. coli S17-1 (K12) = tested on: E. coli S17-1 (K12)
Experimental: as §1, §2

E. faecalis = tested on: E. faecalis
Experimental: as §1, §2

K. oxytoca = tested on: K. oxytoca
Experimental: as §1, §2

K. pneumoniae = tested on: K. pneumoniae
Experimental: as §1, §2

P. putida = tested on: P. putida
Experimental: as §1, §2

Pseudomonas sp. 2881 = tested on: Pseudomonas sp. 2881
Experimental: as §1, §2

S. paucimobilis = tested on: S. paucimobilis
Experimental: as §1, §2

S. plymuthica = tested on: S. plymuthica
Experimental: as §1, §2

Row | Molecule | extent of aggregation (score) (A. hydrophila; lectin 1 × 10^−1 mg/mL) | extent of aggregation (score) (A. hydrophila; lectin 1 × 10^−2 mg/mL) | extent of aggregation (score) (A. hydrophila; lectin 1 × 10^−3 mg/mL) | extent of aggregation (score) (C. freundii; lectin 1 × 10^−1 mg/mL) | extent of aggregation (score) (C. freundii; lectin 1 × 10^−2 mg/mL) | extent of aggregation (score) (C. freundii; lectin 1 × 10^−3 mg/mL) | extent of aggregation (score) (E. brevis; lectin 1 × 10^−1 mg/mL) | extent of aggregation (score) (E. brevis; lectin 1 × 10^−2 mg/mL) | extent of aggregation (score) (E. brevis; lectin 1 × 10^−3 mg/mL) | extent of aggregation (score) (E. coli S17-1 (K12); lectin 1 × 10^−1 mg/mL) | extent of aggregation (score) (E. coli S17-1 (K12); lectin 1 × 10^−2 mg/mL) | extent of aggregation (score) (E. coli S17-1 (K12); lectin 1 × 10^−3 mg/mL) | extent of aggregation (score) (E. faecalis; lectin 1 × 10^−1 mg/mL) | extent of aggregation (score) (E. faecalis; lectin 1 × 10^−2 mg/mL) | extent of aggregation (score) (E. faecalis; lectin 1 × 10^−3 mg/mL) | extent of aggregation (score) (K. oxytoca; lectin 1 × 10^−1 mg/mL) | extent of aggregation (score) (K. oxytoca; lectin 1 × 10^−2 mg/mL) | extent of aggregation (score) (K. oxytoca; lectin 1 × 10^−3 mg/mL) | extent of aggregation (score) (K. pneumoniae; lectin 1 × 10^−1 mg/mL) | extent of aggregation (score) (K. pneumoniae; lectin 1 × 10^−2 mg/mL) | also measured
1 | Concanavalin A | +++ | ++ | ++ | +++ | + | + | + | + | 0 | +++ | +++ | + | 0 | + | ++ | ++ | + | 0 | +++ | + | extent of aggregation (score) (K. pneumoniae; lectin 1 × 10^−3 mg/mL): +; extent of aggregation (score) (P. putida; lectin 1 × 10^−1 mg/mL): +++; extent of aggregation (score) (P. putida; lectin 1 × 10^−2 mg/mL): ++; extent of aggregation (score) (P. putida; lectin 1 × 10^−3 mg/mL): +; extent of aggregation (score) (Pseudomonas sp. 2881; lectin 1 × 10^−1 mg/mL): +++; extent of aggregation (score) (Pseudomonas sp. 2881; lectin 1 × 10^−2 mg/mL): ++; extent of aggregation (score) (Pseudomonas sp. 2881; lectin 1 × 10^−3 mg/mL): ++; extent of aggregation (score) (S. paucimobilis; lectin 1 × 10^−1 mg/mL): +; extent of aggregation (score) (S. paucimobilis; lectin 1 × 10^−2 mg/mL): ++; extent of aggregation (score) (S. paucimobilis; lectin 1 × 10^−3 mg/mL): 0; extent of aggregation (score) (S. plymuthica; lectin 1 × 10^−1 mg/mL): +; extent of aggregation (score) (S. plymuthica; lectin 1 × 10^−2 mg/mL): +; extent of aggregation (score) (S. plymuthica; lectin 1 × 10^−3 mg/mL): +
2 | Lentil lectin (protein, UniProt P02870 31-210; P02870 218-269, looked up) Lectin beta chain: TETTSFSITKFSPDQKNLIFQGDGYTTKGKLTLTKAVKSTVGRALYSTPIHIWDRDTGNVANFVTSFTFVIDAPSSYNVADEFTFFIAPVDTKPQTGGGYLGVFNSKEYDKTSQTVAVEFDTFYNAAWDPSNKERHIGIDVNSIKSVNTKSWNLQNGERANVVIAFNAATNVLTVTLTYP Lectin alpha chain: VTSYTLNEVVPLKDVVPEWVRIGFSATTGAEFAAHEVHSWSFHSELGGTSSS | +++ | ++ | ++ | +++ | + | + | + | 0 | 0 | +++ | ++ | + | + | + | ++ | ++ | + | 0 | ++ | + | extent of aggregation (score) (K. pneumoniae; lectin 1 × 10^−3 mg/mL): +; extent of aggregation (score) (P. putida; lectin 1 × 10^−1 mg/mL): +++; extent of aggregation (score) (P. putida; lectin 1 × 10^−2 mg/mL): ++; extent of aggregation (score) (P. putida; lectin 1 × 10^−3 mg/mL): +; extent of aggregation (score) (Pseudomonas sp. 2881; lectin 1 × 10^−1 mg/mL): +++; extent of aggregation (score) (Pseudomonas sp. 2881; lectin 1 × 10^−2 mg/mL): ++; extent of aggregation (score) (Pseudomonas sp. 2881; lectin 1 × 10^−3 mg/mL): +; extent of aggregation (score) (S. paucimobilis; lectin 1 × 10^−1 mg/mL): +; extent of aggregation (score) (S. paucimobilis; lectin 1 × 10^−2 mg/mL): 0; extent of aggregation (score) (S. paucimobilis; lectin 1 × 10^−3 mg/mL): 0; extent of aggregation (score) (S. plymuthica; lectin 1 × 10^−1 mg/mL): +; extent of aggregation (score) (S. plymuthica; lectin 1 × 10^−2 mg/mL): +; extent of aggregation (score) (S. plymuthica; lectin 1 × 10^−3 mg/mL): +
